In the test the target is Replicase polyprotein 1ab (Severe acute respiratory syndrome coronavirus, UniProt P0C6X7). Nature of the test: SARS-CoV 3CL Protease Inhibition Assay. The settings on record: pH 7; 25 °C. Here is the method: The effects of compound on enzyme activity were measured by using a fluorogenic peptide cleavage assay. Enhanced fluorescence caused by cleavage of the substrate peptide was monitored at 538 nm with excitation at 355 nm. The Ki measurements were performed at two fixed inhibitor concentrations and various substrate concentrations.

As to `CC(C)C[C@H](NC(=O)[C@@H](NC(=O)OC(C)(C)C)C(C)C)C(=O)N[C@@H](Cc1ccccc1)C(=O)Nc1ccc([N+](=O)[O-])cc1Cl` [tert-butyl N-[(1S)-1-{[(1S)-1-{[(1S)-1-[(2-chloro-4-nitrophenyl)carbamoyl]-2-phenylethyl]carbamoyl}-3-methylbutyl]carbamoyl}-2-methylpropyl]carbamate], the IC50 was > 10 µM.
The compound `O=C(C[C@H](O)C(=O)N[C@@H](Cc1ccccc1)C(=O)Nc1ccc([N+](=O)[O-])cc1Cl)N[C@@H](Cc1ccccc1)C(=O)Nc1ccc([N+](=O)[O-])cc1Cl` [(2S)-N,N'-bis[(1S)-1-[(2-chloro-4-nitrophenyl)carbamoyl]-2-phenylethyl]-2-hydroxybutanediamide] had an IC50 of 4 µM and a Ki of 3.1 µM.
In the same order, the values of `Cc1cc(C(=O)N[C@H](C(=O)N[C@@H](Cc2ccccc2)C(=O)N[C@H](C(=O)N[C@@H](Cc2ccccc2)C(=O)Nc2ccc([N+](=O)[O-])cc2Cl)C(C)O)C(C)C)no1` (stereo partly drawn) [N-[(5-methylisoxazol-3-yl)carbonyl]-L-valyl-L-phenylalanyl-L-threonyl-N-(2-chloro-4-nitrophenyl)-L-phenylalaninamide] are 5 µM and 1.61 µM.
For `Cc1cc(C(=O)N[C@H](C(=O)N[C@@H](Cc2ccccc2)C(=O)N[C@@H](Cc2ccccc2)C(=O)Nc2ccc([N+](=O)[O-])cc2Cl)C(C)C)[n-][o+]1` [(2S)-N-[(1S)-1-{[(1S)-1-[(2-chloro-4-nitrophenyl)carbamoyl]-2-phenylethyl]carbamoyl}-2-phenylethyl]-3-methyl-2-[(5-methyl-1,2-oxazol-3-yl)formamido]butanamide] the same measures were 7 µM and 2.9 µM.
Regarding `O=C(Nc1ccc([N+](=O)[O-])cc1Cl)c1cc(Cl)ccc1O` [5-chloro-N-(2-chloro-4-nitrophenyl)-2-hydroxybenzamide], the IC50 was > 50 µM.

The term IC50 denotes the concentration needed to halve the response being measured. The Ki is a dissociation constant, usually derived from enzyme kinetics or from competition with a known ligand. Read a low Ki as higher affinity.

For the origin of these results see BindingDB's records for doi:10.1021/jm050184y (National Taiwan University, 2005).
